# Reference: BindingDB's records for doi:10.7270/Q2CV4GM1 (D3R/Abbott, 2015)
# “And” between values parts separate entries of the source, which are not always exact repeats. Equal entries are not always repeated.
# Molecular target: T1, Tyrosine-protein kinase SYK [355-635] (Homo sapiens, UniProt P43405)
# T1 construct: 355-635
# Test: SYK assay_HTRF
row,SMILES,IC50
1,COC(=O)COc1ccc(Nc2nccc(Nc3cccc4[nH]ncc34)n2)cc1 [GTC000199A],490 nM
2,Cc1noc(NS(=O)(=O)Cc2ccc(Nc3nccc(Nc4cccc5[nH]ncc45)n3)cc2)c1C [GTC000200A],887 nM and 1810 nM
3,O=S(=O)(Cc1ccc(Nc2nccc(Nc3cccc4[nH]ncc34)n2)cc1)NCCCO [GTC000203A],746 nM
4,O=C(COc1ccc(Nc2nccc(Nc3cccc4[nH]ncc34)n2)cc1)NCCCN1CCCC1=O [GTC000204A],2070 nM
5,Cc1noc(NC(=O)Cc2ccc(Nc3nccc(Nc4cccc5[nH]ncc45)n3)cc2)c1C [GTC000205A],925 nM
6,Cc1cc(NC(=O)Cc2ccc(Nc3nccc(Nc4cccc5[nH]ncc45)n3)cc2)no1 [GTC000206A],640 nM
7,CS(=O)(=O)Cc1ccc(Nc2nccc(Nc3cccc4[nH]ncc34)n2)cc1 [GTC000207A],232 nM
8,COc1cccc(NC(=O)Cc2ccc(Nc3nccc(Nc4cccc5[nH]ncc45)n3)cc2)c1 [GTC000209A],524 nM
9,O=C(O)c1ccc(Nc2nccc(Nc3cccc4[nH]ncc34)n2)cc1 [GTC000210A],100 nM and 72.8 nM and 258 nM and 524 nM
10,O=C(Cc1ccc(Nc2nccc(Nc3cccc4[nH]ncc34)n2)cc1)Nc1ccc(C(F)(F)F)cc1 [GTC000211A],2930 nM
11,O=C(Cc1ccc(Nc2nccc(Nc3cccc4[nH]ncc34)n2)cc1)Nc1cccc(C(F)(F)F)c1 [GTC000212A],1040 nM
12,O=C(Cc1ccc(Nc2nccc(Nc3cccc4[nH]ncc34)n2)cc1)Nc1cccc(Cl)c1 [GTC000213A],1390 nM
13,O=C(Cc1ccc(Nc2nccc(Nc3cccc4[nH]ncc34)n2)cc1)Nc1ccc(Cl)cc1 [GTC000214A],1400 nM
14,Cc1nc(NC(=O)Cc2ccc(Nc3nccc(Nc4cccc5[nH]ncc45)n3)cc2)sc1C [GTC000215A],676 nM
15,O=C(Cc1ccc(Nc2nccc(Nc3cccc4[nH]ncc34)n2)cc1)Nc1ccncc1 [GTC000216A],828 nM
16,CNC(=O)Cc1ccc(Nc2nccc(Nc3cccc4[nH]ncc34)n2)cc1 [GTC000218A],1260 nM
17,O=C(Cc1ccc(Nc2nccc(Nc3cccc4[nH]ncc34)n2)cc1)Nc1cccnc1 [GTC000219A],543 nM
18,Cc1ccc(S(=O)(=O)Nc2ccc(Nc3nccc(Nc4cccc5[nH]ncc45)n3)cc2)cc1 [GTC000220A],916 nM
19,O=S1(=O)NCc2ccc(Nc3nccc(N(CCO)c4cccc5[nH]ncc45)n3)cc21 [GTC000223A],3.45 nM

row,SMILES,IC50
1,Cc1ncoc1-c1cccc(Nc2nccc(N(CCCO)c3cccc4[nH]ncc34)n2)c1 [GTC000224A],11.1 nM
2,O=S1(=O)NCc2ccc(Nc3nccc(N(CCCO)c4cccc5[nH]ncc45)n3)cc21 [GTC000226B],0.412 nM and 0.746 nM and 2.23 nM and 3.35 nM and 0.925 nM and 2.21 nM and 3.52 nM and 3.44 nM
3,NCCCN(c1ccnc(Nc2ccc3c(c2)S(=O)(=O)NC3)n1)c1cccc2[nH]ncc12 [GTC000227A],0.857 nM and 0.75 nM and 3.63 nM
4,COCCCN(c1nc(Nc2ccc3c(c2)S(=O)(=O)NC3)ncc1F)c1cccc2[nH]ncc12 [GTC000228C],2.45 nM and 1.1 nM and 2.07 nM and 1.38 nM and 3.35 nM and 1.47 nM and 2.08 nM and 7 nM and 4.35 nM and 2.02 nM and 5.36 nM and 2 nM and 3.66 nM and 2.13 nM and 2.86 nM
5,O=C(O)CCCCN(c1ccnc(Nc2ccc3c(c2)S(=O)(=O)NC3)n1)c1cccc2[nH]ncc12 [GTC000229A],1.41 nM and 1.19 nM and 2.47 nM
6,O=S1(=O)NCc2ccc(Nc3ncc(F)c(N(CCCO)c4cccc5[nH]ncc45)n3)cc21 [GTC000230A],1.46 nM
7,CC(=O)NCCCCN(c1ccnc(Nc2ccc3[nH]c(=O)[nH]c3c2)n1)c1cccc2[nH]ncc12 [GTC000231A],1.42 nM
8,OCCN(c1ccnc(Nc2ccc3nn[nH]c3c2)n1)c1cccc2[nH]ncc12 [GTC000232A],2.05 nM
9,Cc1nn(CCCO)c2cc(Nc3ncc(F)c(N(CCCO)c4cccc5[nH]ncc45)n3)ccc12 [GTC000234A],4.79 nM and 2.46 nM and 1.87 nM
10,O=S1(=O)CCc2ccc(Nc3ncc(F)c(N(CCCCO)c4cccc5[nH]ncc45)n3)cc21 [GTC000235A],9.64 nM and 1.94 nM and 1.64 nM
11,COCCCN(c1ccnc(Nc2ccc3c(c2)S(=O)(=O)NC3)n1)c1cccc2[nH]ncc12 [GTC000236A],2.69 nM and 1.48 nM and 4.88 nM and 4.34 nM
12,CCN(c1nc(Nc2ccc3[nH]c(=O)[nH]c3c2)ncc1F)c1cccc2[nH]ncc12 [GTC000237B],1.87 nM and 6.87 nM and 3.76 nM and 3.14 nM and 8.63 nM and 2.75 nM
13,CCN(c1nc(Nc2ccc3c(C)nn(CCCO)c3c2)ncc1F)c1cccc2[nH]ncc12 [GTC000242A],3.61 nM and 9.62 nM and 1.58 nM and 2.77 nM and 3.88 nM
14,O=C(O)CCCN(c1ccnc(Nc2ccc3c(c2)S(=O)(=O)NC3)n1)c1cccc2[nH]ncc12 [GTC000245A],3.88 nM
15,CCN(c1nc(Nc2ccc3cn[nH]c3c2)ncc1F)c1cccc2[nH]ncc12 [GTC000247A],4.25 nM
16,CN(c1nc(Nc2ccc3c(c2)COC(=O)N3)ncc1F)c1cccc2[nH]ncc12 [GTC000248A],3.9 nM
17,CCN(c1nc(Nc2ccc3cnn(CCCO)c3c2)ncc1F)c1cccc2[nH]ncc12 [GTC000250A],2.81 nM and 3.59 nM and 14.9 nM and 5.77 nM
18,O=S1(=O)NCc2ccc(Nc3ncc(F)c(N(CC4CCOC4)c4cccc5[nH]ncc45)n3)cc21 (stereo not drawn) [GTC000253A],5.19 nM

# The remaining lines, values ahead:
row,IC50,SMILES
1,326 nM,O=C(O)COc1ccc(Nc2nccc(Nc3cccc4[nH]ncc34)n2)cc1 [GTC000198A]
2,1100 nM,Cc1nc(NS(=O)(=O)Cc2ccc(Nc3nccc(Nc4cccc5[nH]ncc45)n3)cc2)sc1C [GTC000201A]
3,706 nM,O=C1CCCN1CCCNS(=O)(=O)Cc1ccc(Nc2nccc(Nc3cccc4[nH]ncc34)n2)cc1 [GTC000202A]
4,849 nM,COc1ccc(NC(=O)Cc2ccc(Nc3nccc(Nc4cccc5[nH]ncc45)n3)cc2)cc1 [GTC000208A]
5,414 nM,CS(=O)(=O)Nc1ccc(Nc2nccc(Nc3cccc4[nH]ncc34)n2)cc1 [GTC000217A]
6,164 nM and 78.2 nM and 235 nM,c1cc(Nc2ccnc(Nc3ccc4[nH]ncc4c3)n2)c2cn[nH]c2c1 [GTC000221A]
7,12.7 nM and 15.6 nM and 9.33 nM,CCN(c1nc(Nc2ccc3c(c2)S(=O)(=O)NC3)ncc1Cl)c1cccc2[nH]ncc12 [GTC000222A]
8,20.6 nM and 18.5 nM,Cn1ncc2cc(Nc3nccc(N(CCCO)c4cccc5[nH]ncc45)n3)ccc21 [GTC000225A]
9,2.92 nM,COCCCN(c1ccnc(Nc2ccc3c(c2)COC(=O)N3)n1)c1cccc2[nH]ncc12 [GTC000238A]
10,3.16 nM,CS(=O)(=O)NCCCN(c1ccnc(Nc2ccc3[nH]c(=O)[nH]c3c2)n1)c1cccc2[nH]ncc12 [GTC000239A]
11,3.21 nM and 19 nM and 19.8 nM and 17.2 nM,CCN(c1nc(Nc2cccc(S(N)(=O)=O)c2)ncc1F)c1cccc2[nH]ncc12 [GTC000240B]
12,2.9 nM,O=S1(=O)NCc2ccc(Nc3nccc(N(CCCCO)c4cccc5[nH]ncc45)n3)cc21 [GTC000241A]
13,4.09 nM and 3.13 nM and 3.56 nM and 9.55 nM and 5 nM and 4.1 nM and 3.04 nM and 3.52 nM and 5.97 nM,CCCN(c1nc(Nc2ccc3c(c2)S(=O)(=O)NC3)ncc1F)c1cccc2[nH]ncc12 [GTC000243A]
14,3 nM and 3.31 nM and 5.53 nM,NCCCCCN(c1ccnc(Nc2ccc3c(c2)S(=O)(=O)NC3)n1)c1cccc2[nH]ncc12 [GTC000244A]
15,3.6 nM,COCCCN(c1ccnc(Nc2ccc3[nH]c(=O)[nH]c3c2)n1)c1cccc2[nH]ncc12 [GTC000246A]
16,11.6 nM and 1.99 nM,CN(c1nc(Nc2ccc3c(c2)S(=O)(=O)NC3)ncc1F)c1cccc2[nH]ncc12 [GTC000249A]
17,6.11 nM and 4.06 nM and 3.67 nM,O=S1(=O)CCc2ccc(Nc3ncc(F)c(N(CCCO)c4cccc5[nH]ncc45)n3)cc21 [GTC000251A]
18,4.94 nM,NCCCN(c1nc(Nc2ccc3c(c2)S(=O)(=O)CC3)ncc1F)c1cccc2[nH]ncc12 [GTC000252A]
19,4.75 nM,O=S1(=O)CCc2ccc(Nc3ncc(F)c(N(CCO)c4cccc5[nH]ncc45)n3)cc21 [GTC000254A]
20,4.63 nM,CCN(c1nc(Nc2ccc3cnn(C)c3c2)ncc1F)c1cccc2[nH]ncc12 [GTC000255A]
21,5.01 nM,O=c1[nH]c2ccc(Nc3nccc(N(CCCO)c4cccc5[nH]ncc45)n3)cc2[nH]1 [GTC000256A]
